Assays:
[1] = tested on: mouse T cell hybridomas FF13; assay: IL-2 secretion by recognition of glycolipids by a murine NKT cell line (FF13 hybridoma, THP1 hCD1d as APC, ELISA); format: cell-based; conditions: at 10 micromolar; CD1d-transfected THP-1 cells exposed two hours to test compound; IL-2 in medium determined 48 hrs later
Method: As a measure of T cell activation, IL2 release into the culture medium was determined after 48 hours culture by an ELISA assay. […] The x-axis is amount of glycolipid in μg/ml.
The biological evaluation of compounds of the invention uses mouse Vα14i NKT cells immortalized by cell fusion to give hybridomas FF13 through the presentation by APC (THP1). As a measure of T cell activation, IL2 release into the culture medium was determined after 48 hours culture by an ELISA assay. […]
100 μl FF13 in complete medium were added (10×10^4 per well) and after 48 hours the tests were evaluated for IL2 production.
IL2 concentration is evaluated by ELISA using a primary monoclonal Anti-mouse IL-2 Antibody (R&D System), a biotinylated detection anti-mouse IL-2 Antibody (R&D System) and as color developer SIGMA FAST OPD. […]
FIG. 2 depicts the IL2 levels released by cells that had been treated with compounds 13-16, compared to the effect of alpha-GalCer itself, in an NKT cell hybridoma test. The a-GalCer specific NKT hybridoma cells were added to CD1d-transfected THP-1 cells that had been exposed for two hours to various doses of the test compound (about 0.1 to about 10 μg/mL), and IL-2 levels in the medium were determined 48 hrs later.

Solubility in water = format: physicochemical
Method: In some embodiments, the compounds of the invention have a solubility of at least about 0.5 mg/mL, 1 mg/mL, 2 mg/mL, 5 mg/mL, 7.5 mg/mL, 10 mg/mL, 12.5 mg/mL, 15 mg/mL, 17.5 mg/mL, 20 mg/mL, 25 mg/mL, 30 mg/mL, 40 mg/mL, 50 mg/mL, 75 mg/mL, 100 mg/mL, 150 mg/mL or 200 mg/mL in an aqueous solution.

| solubility in water (Solubility in water) | SMILES | IL2 levels released, compared to the effect of alpha-GalCer [1] |
| --- | --- | --- |
| – | CCCCCCCCCCCCCCCCCCCCCCCCCC(=O)N[C@@H](COC1OC(CO)C(O)C(O)C1O)[C@H](O)[C@H](O)COCCOCCCC (stereo partly drawn) [Compound 13, (2S,3S,4R)-5-O-(2-butoxyetil)-2-(N-exacosanoylamino)-1-O-(α-D-galactopyranosyl)-1,3,4,5-pentanetetraol] | as effective as a-GalCer |
| soluble in water | CCCCCCCCCCCCCCCCCCCCCCCCCC(=O)N[C@@H](CO[C@H]1OC(CO)[C@H](O)C(O)C1O)[C@H](O)[C@H](O)COCCCc1ccccc1 (stereo partly drawn) [Compound 15] | – |
| – | CCCCCCCCCCCCCCCCCCCCCCCCCC(=O)N[C@@H](CO[C@H]1OC(CO)[C@H](O)C(O)C1O)[C@H](O)[C@H](O)COCCCc1ccccc1 (stereo partly drawn) [Compound 16] | as effective as a-GalCer |

Source: patent US8697659B2, “Analogues of glycolipids useful as immunoadjuvants” (Luigi Panza, priority 2007, dated 2014)
